Data published in US5550110A, “Endothelin Antagonists II” (Warner-Lambert Company, priority 1994, dated 1996).
Peptide text beside a SMILES is read from it.

What was measured:
[1] = molecular target: T1, rat recombinant ETB receptor (CHO cells) (Rattus norvegicus, UniProt P21451); experiment: Inhibition of ET-1 stimulated arachidonic acid release (AAR-B); format: cell-based; settings: ET-1 0.3 nM
T1 construct: expressed in transfected cells; host or cells: CHO cells
T1 sequence (P21451 27-442): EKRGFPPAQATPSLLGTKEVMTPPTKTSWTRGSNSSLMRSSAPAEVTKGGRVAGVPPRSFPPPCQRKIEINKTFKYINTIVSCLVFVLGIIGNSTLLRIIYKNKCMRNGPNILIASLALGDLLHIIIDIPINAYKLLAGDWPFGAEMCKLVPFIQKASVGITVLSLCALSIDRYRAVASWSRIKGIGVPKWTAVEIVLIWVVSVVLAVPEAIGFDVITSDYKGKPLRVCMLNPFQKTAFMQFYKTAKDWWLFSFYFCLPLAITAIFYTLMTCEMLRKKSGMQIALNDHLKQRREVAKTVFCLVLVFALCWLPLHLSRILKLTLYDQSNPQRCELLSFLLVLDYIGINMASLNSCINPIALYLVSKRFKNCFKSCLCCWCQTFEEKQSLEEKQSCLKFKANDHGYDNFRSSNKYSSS
Method: In Vitro Inhibition of ET-1 Stimulated Arachidonic Acid Release in Cultured Rabbit Vascular Smooth Muscle Cells (AAR-A) or CHO Cells Expressing Rat Recombinant ETB Receptor (AAR-B) by Compounds of Formula I
Antagonist activity is measured by the ability of added compounds to reduce endothelin-stimulated arachidonic acid release in cultured vascular smooth muscle cells as arachidonic acid release (AAR). [^3 H] Arachidonic Acid Loading Media (LM) is DME/F12+0.5% fetal calf serum (FCS)×0.25 mCi/mL [^3 H] arachidonic acid (Amersham). Confluent monolayers of cultured rabbit renal artery vascular smooth muscle cells (AAR-A) or CHO cells expressing rat recombinant ETB receptor (AAR-B) were incubated in 0.5 mL of the LM over 18 hours, at 37° C., in 5% CO2. The LM was aspirated and the cells were washed once with the assay buffer (Hank's balanced salt solution [BSS]+10 mM HEPES+fatty acid-free BSA (1 mg/mL)), and incubated for 5 minutes with 1 mL of the prewarmed assay buffer. This solution was aspirated, followed by an additional 1 mL of prewarmed assay buffer, and further incubated for another 5 minutes. A final 5-minute incubation was carried out in a similar manner. The same procedure was repeated with the inclusion of 10 μL of the test compound (1 nM to 1 μM) and 10 μL ET-1 (0.3 nM) and the incubation was extended for 30 minutes. This solution was then collected, […] of scintillation cocktail was added, and the amount of [^3 H] arachidonic acid was determined in a liquid scintillation counter.

[2] = molecular target: T2, human ETB receptor (cloned, CHO-K1 cells) (Homo sapiens, UniProt P24530); experiment: Human Endothelin Receptor Binding Assay-B (hERBA-B), binding to human cloned receptor; settings: membranes of transfected CHO-K1 cells
T2 construct: The 1.35 kb HindIII/XbaI restriction fragment of clone 12 of the hETBR was inserted into the eukaryotic expression vector pRcCMV; expressed in transfected cells; host or cells: CHO-K1
Method: Human Endothelin Receptor Biding Assay-B (hERBA-B) [^125 I]-ET-1 Binding to Human Cloned Receptor
A human placenta cDNA library was constructed in bacteriophage lambda gt11 and approximately 10^6 plaques were screened with a ^32 P-labelled 1.3 kilobase HindIII/XbaI restriction fragment of rat ETBR cDNA as a probe. Plaque hybridization was carried out for 16 hours at 42° C. in a solution containing 100 μg/mL calf thymus DNA, 1×Denhardt's solution, 5×sodium saline citrate (SSC), 50 mM sodium phosphate, and 0.1% sodium lauryl sulfate (SDS). The membranes were then washed twice for 30 minutes each in 2×SSC and 0.1% SDS at 42° C. A final wash was carried out in 0.5×SSC with 0.1% SDS at 55° C. The positive clones were purified and subcloned into a pUC19 plasmid. DNA sequencing was performed by the dideoxynucleotide chain termination method and human ETBR (h ETBR) was identified by reading both DNA strands.
The 1.35 kb HindIII/XbaI restriction fragment of clone 12 of the hETBR was inserted into the eukaryotic expression vector pRcCMV (pRcCMV-hETBR). CHO-K1 cells were transfected with 20 μg of pRcCMV-hETBR by electroporation at 300 V, 800 μF, low ohms for 1 second. […] Expression levels of human ETBR were determined by the receptor binding assay described below using [^125 I]-ET-3 as the radioligand. […]

[3] = tested on: ET-1 pressor activity; experiment: Conscious rat duration of action study; format: in vivo; settings: 10 mg/kg IV; for inhibition of ET-1 pressor activity: ganglionically blocked conscious rats, n=4
Source text: Conscious Rat Duration of Action Study
Nonfasted rats (350-500 g) were used and anesthetized with Metofane (methoxyflurane) by inhalation. The rats were jugular cannulated (PE50) for IV administration of mecamylamine-HC1 (MEC), ET-1 and Ac-D-Bhg-Leu-Asp-Ile-N-MeIle-Trp (Example 19) Seq ID No: 20, and carotid cannulated (PE50) for arterial blood pressure measurements. Rats were attached to a swivel for freedom of movement, and food and water were available ad lib. Prior to the experiment, the animals were allowed to recover from anesthesia for 60 minutes. […] Ac-D-Bhg-Leu-Asp-Ile-N-MeIle-TrP (Example 19) Seq ID No: 20 was administered at a dose of 10 mg/kg IV.

T2 sequence (P24530 27-442): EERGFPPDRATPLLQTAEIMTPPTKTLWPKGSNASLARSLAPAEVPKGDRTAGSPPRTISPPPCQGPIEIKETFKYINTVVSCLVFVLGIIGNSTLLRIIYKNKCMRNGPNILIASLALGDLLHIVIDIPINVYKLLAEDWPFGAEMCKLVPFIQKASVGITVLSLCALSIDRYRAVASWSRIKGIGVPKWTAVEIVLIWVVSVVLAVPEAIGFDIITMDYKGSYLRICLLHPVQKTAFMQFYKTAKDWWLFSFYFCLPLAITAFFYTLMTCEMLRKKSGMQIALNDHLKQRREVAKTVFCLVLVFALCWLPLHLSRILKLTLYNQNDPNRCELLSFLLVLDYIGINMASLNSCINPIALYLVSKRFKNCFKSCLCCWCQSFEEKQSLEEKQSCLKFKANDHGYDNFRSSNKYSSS

Structure (SMILES)	IC50 [1] [µM]	IC50 [2] [µM]	duration of activity in vivo [3]	inhibition of ET-1 pressor activity ([3]; 5 minutes postdose) [%]	inhibition of ET-1 pressor activity ([3]; 30 minutes postdose) [%]
CC[C@H](C)[C@H](NC(=O)[C@H](CC(=O)O)NC(=O)[C@H](CC(C)C)NC(=O)[C@H](NC(C)=O)C1c2ccccc2CCc2ccccc21)C(=O)N[C@H](C(=O)N[C@@H](Cc1c[nH]c2ccccc12)C(=O)O)[C@@H](C)CC [Example 1, Ac-D-Bhg-Leu-Asp-Ile-Ile-Trp] (HELM PEPTIDE1{[ac].[O=C([C@H](N[*:1])C1c2ccccc2CCc2ccccc21)[*:2]].L.D.I.I.W}$$$$V2.0)	0.02	0.21	–	–	–
CC[C@H](C)[C@H](NC(=O)[C@H](CC(=O)O)NC(=O)[C@H](CC(C)C)NC(=O)[C@H](NC(C)=O)C1c2ccccc2CCc2ccccc21)C(=O)N(C)[C@H](C(=O)N[C@@H](Cc1c[nH]c2ccccc12)C(=O)O)[C@@H](C)CC [Example 19, Ac-D-Bhg-Leu-Asp-Ile-N-MeIle-Trp] (HELM PEPTIDE1{[ac].[O=C([C@H](N[*:1])C1c2ccccc2CCc2ccccc21)[*:2]].L.D.I.[meI].W}$$$$V2.0)	–	0.025	prolonged activity	81	58
